# Measurements as given in ChEMBL document CHEMBL1151757, “Synthesis, radiosynthesis, and biological evaluation of fluorine-18-labeled 2beta-carbo(fluoroalkoxy)-3beta-(3'-((Z)-2-haloethenyl)phenyl)nortropanes: candidate radioligands for in vivo imaging of the serotonin transporter with positron emission tomography” (J Med Chem, 2008).
# Tests used:
# [1] = Ratio of drug uptake in putamen to cerebellum in anesthetized cynomolgus monkey after 45 mins postinjection; assay type: ADME, organism-based, Macaca fascicularis; conditions: in vivo, 0.75 h
# Putamen [2] = assay: Drug uptake in anesthetized cynomolgus monkey brain putamen after 115 mins postinjection; assay type: ADME, organism-based, Macaca fascicularis; set-up: unit not given here; conditions: in vivo
# [3] = Ratio of drug uptake in thalamus to cerebellum in anesthetized cynomolgus monkey after 195 mins postinjection; assay type: ADME, organism-based, Macaca fascicularis; conditions: in vivo, 3.25 h
# Putamen [4] = assay: Drug uptake in anesthetized cynomolgus monkey brain putamen after 165 mins postinjection; assay type: ADME, organism-based, Macaca fascicularis; conditions: in vivo, 2.75 h
# Midbrain [5] = assay: Drug uptake in anesthetized cynomolgus monkey brain midbrain after 145 mins postinjection; assay type: ADME, organism-based, Macaca fascicularis; conditions: in vivo
# Pons [6] = assay: Drug uptake in anesthetized cynomolgus monkey brain pons after 45 mins postinjection; assay type: ADME, organism-based, Macaca fascicularis; conditions: in vivo, 0.75 h
# [7] = Ratio of drug uptake in pons to cerebellum in anesthetized cynomolgus monkey after 195 mins postinjection; assay type: ADME, organism-based, Macaca fascicularis; conditions: in vivo, 3.25 h
# [8] = Drug uptake in anesthetized cynomolgus monkey brain cerebellum after 0.5 mins postinjection; assay type: ADME, organism-based, Macaca fascicularis; conditions: in vivo
# Caudate [9] = assay: Drug uptake in anesthetized cynomolgus monkey brain caudate after 165 mins postinjection; assay type: ADME, organism-based, Macaca fascicularis, Caudate nucleus; conditions: in vivo, 2.75 h
# Midbrain [10] = assay: Drug uptake in anesthetized cynomolgus monkey brain midbrain after 195 mins postinjection; assay type: ADME, organism-based, Macaca fascicularis; conditions: in vivo, 3.25 h
# [11] = Drug uptake in anesthetized cynomolgus monkey brain frontal lobe after 95 mins postinjection; assay type: ADME, organism-based, Macaca fascicularis; conditions: in vivo
# Medulla [12] = assay: Drug uptake in anesthetized cynomolgus monkey brain medulla after 6.5 mins postinjection; assay type: ADME, organism-based, Macaca fascicularis; conditions: in vivo
# [13] = Drug uptake in anesthetized cynomolgus monkey brain cerebellum after 12.5 mins postinjection; assay type: ADME, organism-based, Macaca fascicularis; conditions: in vivo
# Medulla [14] = assay: Drug uptake in anesthetized cynomolgus monkey brain medulla after 22.5 mins postinjection; assay type: ADME, organism-based, Macaca fascicularis; conditions: in vivo, 0.375 h
# [15] = Drug uptake in anesthetized cynomolgus monkey brain frontal lobe after 225 mins postinjection; assay type: ADME, organism-based, Macaca fascicularis; conditions: in vivo, 3.75 h
# Caudate [16] = assay: Drug uptake in anesthetized cynomolgus monkey brain caudate after 215 mins postinjection; assay type: ADME, organism-based, Macaca fascicularis, Caudate nucleus; conditions: in vivo
# Putamen [17] = assay: Drug uptake in anesthetized cynomolgus monkey brain putamen after 9.5 mins postinjection; assay type: ADME, organism-based, Macaca fascicularis; set-up: unit not given here; conditions: in vivo
# Midbrain [18] = assay: Drug uptake in anesthetized cynomolgus monkey brain midbrain after 2.5 mins postinjection; assay type: ADME, organism-based, Macaca fascicularis; set-up: unit not given here; conditions: in vivo
# [19] = Ratio of drug uptake in pons to cerebellum in anesthetized cynomolgus monkey after 95 mins postinjection; assay type: ADME, organism-based, Macaca fascicularis; conditions: in vivo
# Caudate [20] = assay: Drug uptake in anesthetized cynomolgus monkey brain caudate after 45 mins postinjection; assay type: ADME, organism-based, Macaca fascicularis, Caudate nucleus; conditions: in vivo, 0.75 h
# Medulla [21] = assay: Drug uptake in anesthetized cynomolgus monkey brain medulla after 12.5 mins postinjection; assay type: ADME, organism-based, Macaca fascicularis; conditions: in vivo
# [22] = Ratio of drug uptake in occipital lobe to cerebellum in anesthetized cynomolgus monkey after 185 mins postinjection; assay type: ADME, organism-based, Macaca fascicularis; conditions: in vivo
# Thalamus [23] = assay: Drug uptake in anesthetized cynomolgus monkey brain thalamus after 15.5 mins postinjection; assay type: ADME, organism-based, Macaca fascicularis; set-up: unit not given here; conditions: in vivo
# Caudate [24] = assay: Drug uptake in anesthetized cynomolgus monkey brain caudate after 4.5 mins postinjection; assay type: ADME, organism-based, Macaca fascicularis, Caudate nucleus; conditions: in vivo, 0.075 h
# Medulla [25] = assay: Drug uptake in anesthetized cynomolgus monkey brain medulla after 15.5 mins postinjection; assay type: ADME, organism-based, Macaca fascicularis; conditions: in vivo
# [26] = Drug uptake in anesthetized cynomolgus monkey brain occipital lobe after 35 mins postinjection; assay type: ADME, organism-based, Macaca fascicularis; conditions: in vivo
# Pons [27] = assay: Drug uptake in anesthetized cynomolgus monkey brain pons after 165 mins postinjection; assay type: ADME, organism-based, Macaca fascicularis; conditions: in vivo, 2.75 h
# Thalamus [28] = assay: Drug uptake in anesthetized cynomolgus monkey brain thalamus after 225 mins postinjection; assay type: ADME, organism-based, Macaca fascicularis; set-up: unit not given here; conditions: in vivo, 3.75 h
# Pons [29] = assay: Drug uptake in anesthetized cynomolgus monkey brain pons after 125 mins postinjection; assay type: ADME, organism-based, Macaca fascicularis; conditions: in vivo
# Pons [30] = assay: Drug uptake in anesthetized cynomolgus monkey brain pons after 85 mins postinjection; assay type: ADME, organism-based, Macaca fascicularis; conditions: in vivo
# Midbrain [31] = assay: Drug uptake in anesthetized cynomolgus monkey brain midbrain after 175 mins postinjection; assay type: ADME, organism-based, Macaca fascicularis; conditions: in vivo
# Putamen [32] = assay: Drug uptake in anesthetized cynomolgus monkey brain putamen after 3.5 mins postinjection; assay type: ADME, organism-based, Macaca fascicularis; conditions: in vivo
# [33] = Ratio of drug uptake in midbrain to cerebellum in anesthetized cynomolgus monkey after 225 mins postinjection; assay type: ADME, organism-based, Macaca fascicularis; conditions: in vivo, 3.75 h
# Medulla [34] = assay: Drug uptake in anesthetized cynomolgus monkey brain medulla after 225 mins postinjection; assay type: ADME, organism-based, Macaca fascicularis; conditions: in vivo, 3.75 h
# Pons [35] = assay: Drug uptake in anesthetized cynomolgus monkey brain pons after 195 mins postinjection; assay type: ADME, organism-based, Macaca fascicularis; conditions: in vivo, 3.25 h
# Thalamus [36] = assay: Drug uptake in anesthetized cynomolgus monkey brain thalamus after 12.5 mins postinjection; assay type: ADME, organism-based, Macaca fascicularis; set-up: unit not given here; conditions: in vivo
# Midbrain [37] = assay: Drug uptake in anesthetized cynomolgus monkey brain midbrain after 65 mins postinjection; assay type: ADME, organism-based, Macaca fascicularis; set-up: unit not given here; conditions: in vivo
# Caudate [38] = assay: Drug uptake in anesthetized cynomolgus monkey brain caudate after 225 mins postinjection; assay type: ADME, organism-based, Macaca fascicularis, Caudate nucleus; conditions: in vivo, 3.75 h
# Thalamus [39] = assay: Drug uptake in anesthetized cynomolgus monkey brain thalamus after 105 mins postinjection; assay type: ADME, organism-based, Macaca fascicularis; set-up: unit not given here; conditions: in vivo, 1.75 h
# Thalamus [40] = assay: Drug uptake in anesthetized cynomolgus monkey brain thalamus after 75 mins postinjection; assay type: ADME, organism-based, Macaca fascicularis; set-up: unit not given here; conditions: in vivo, 1.25 h
# Midbrain [41] = assay: Drug uptake in anesthetized cynomolgus monkey brain midbrain after 215 mins postinjection; assay type: ADME, organism-based, Macaca fascicularis; conditions: in vivo
# Pons [42] = assay: Drug uptake in anesthetized cynomolgus monkey brain pons after 1.5 mins postinjection; assay type: ADME, organism-based, Macaca fascicularis; conditions: in vivo, 0.025 h
# Thalamus [43] = assay: Drug uptake in anesthetized cynomolgus monkey brain thalamus after 165 mins postinjection; assay type: ADME, organism-based, Macaca fascicularis; set-up: unit not given here; conditions: in vivo, 2.75 h
# Thalamus [44] = assay: Drug uptake in anesthetized cynomolgus monkey brain thalamus after 3.5 mins postinjection; assay type: ADME, organism-based, Macaca fascicularis; set-up: unit not given here; conditions: in vivo
# [45] = Ratio of drug uptake in medulla to cerebellum in anesthetized cynomolgus monkey after 185 mins postinjection; assay type: ADME, organism-based, Macaca fascicularis; conditions: in vivo
# [46] = Ratio of drug uptake in frontal lobe to cerebellum in anesthetized cynomolgus monkey after 195 mins postinjection; assay type: ADME, organism-based, Macaca fascicularis; conditions: in vivo, 3.25 h
# Midbrain [47] = assay: Drug uptake in anesthetized cynomolgus monkey brain midbrain after 22.5 mins postinjection; assay type: ADME, organism-based, Macaca fascicularis; set-up: unit not given here; conditions: in vivo, 0.375 h
# [48] = Ratio of drug uptake in medulla to cerebellum in anesthetized cynomolgus monkey after 165 mins postinjection; assay type: ADME, organism-based, Macaca fascicularis; conditions: in vivo, 2.75 h
# Caudate [49] = assay: Drug uptake in anesthetized cynomolgus monkey brain caudate after 195 mins postinjection; assay type: ADME, organism-based, Macaca fascicularis, Caudate nucleus; conditions: in vivo, 3.25 h
# [50] = Ratio of drug uptake in putamen to cerebellum in anesthetized cynomolgus monkey after 215 mins postinjection; assay type: ADME, organism-based, Macaca fascicularis; conditions: in vivo
# Pons [51] = assay: Drug uptake in anesthetized cynomolgus monkey brain pons after 6.5 mins postinjection; assay type: ADME, organism-based, Macaca fascicularis; conditions: in vivo
# Putamen [52] = assay: Drug uptake in anesthetized cynomolgus monkey brain putamen after 235 mins postinjection; assay type: ADME, organism-based, Macaca fascicularis; conditions: in vivo
# Medulla [53] = assay: Drug uptake in anesthetized cynomolgus monkey brain medulla after 75 mins postinjection; assay type: ADME, organism-based, Macaca fascicularis; conditions: in vivo, 1.25 h
# [54] = Ratio of drug uptake in occipital lobe to cerebellum in anesthetized cynomolgus monkey after 195 mins postinjection; assay type: ADME, organism-based, Macaca fascicularis; conditions: in vivo, 3.25 h
# Caudate [55] = assay: Drug uptake in anesthetized cynomolgus monkey brain caudate after 15.5 mins postinjection; assay type: ADME, organism-based, Macaca fascicularis, Caudate nucleus; conditions: in vivo
# [56] = Ratio of drug uptake in thalamus to cerebellum in anesthetized cynomolgus monkey after 115 mins postinjection; assay type: ADME, organism-based, Macaca fascicularis; conditions: in vivo
# [57] = Ratio of drug uptake in frontal lobe to cerebellum in anesthetized cynomolgus monkey after 135 mins postinjection; assay type: ADME, organism-based, Macaca fascicularis; conditions: in vivo, 2.25 h
# [58] = Ratio of drug uptake in midbrain to cerebellum in anesthetized cynomolgus monkey after 27.5 mins postinjection; assay type: ADME, organism-based, Macaca fascicularis; conditions: in vivo
smiles,measurement,setting,value
O=C(OCC[18F])C1C2CCC(CC1c1ccc(/C=C\I)cc1)N2 (stereo not drawn),Ratio,[1],1.4
same,Drug uptake,Putamen [2],4.34
same,Ratio,[3],2.8
same,Drug uptake,Putamen [4],4.22
same,Drug uptake,Midbrain [5],4.65
same,Drug uptake,Pons [6],3.09
same,Ratio,[7],2.6
same,Drug uptake,[8],0
same,Drug uptake,Caudate [9],2.99
same,Drug uptake,Midbrain [10],4.56
same,Drug uptake,[11],2.03
same,Drug uptake,Medulla [12],2.02
same,Drug uptake,[13],2.13
same,Drug uptake,Medulla [14],3.09
same,Drug uptake,[15],1.56
same,Drug uptake,Caudate [16],2.81
same,Drug uptake,Putamen [17],2.38
same,Drug uptake,Midbrain [18],0.4
same,Ratio,[19],1.6
same,Drug uptake,Caudate [20],2.58
same,Drug uptake,Medulla [21],2.59
same,Ratio,[22],1.4
same,Drug uptake,Thalamus [23],2.54
same,Drug uptake,Caudate [24],0.78
same,Drug uptake,Medulla [25],2.67
same,Drug uptake,[26],2.13
same,Drug uptake,Pons [27],3.54
same,Drug uptake,Thalamus [28],3.35
same,Drug uptake,Pons [29],3.56
same,Drug uptake,Pons [30],3.38
same,Drug uptake,Midbrain [31],4.61
same,Drug uptake,Putamen [32],0.82
same,Ratio,[33],4.2
same,Drug uptake,Medulla [34],3.24
same,Drug uptake,Pons [35],3.42
same,Drug uptake,Thalamus [36],2.29
same,Drug uptake,Midbrain [37],4.13
same,Drug uptake,Caudate [38],2.68
same,Drug uptake,Thalamus [39],4.11
same,Drug uptake,Thalamus [40],4.02
same,Drug uptake,Midbrain [41],4.63
same,Drug uptake,Pons [42],0.06
same,Drug uptake,Thalamus [43],3.88
same,Drug uptake,Thalamus [44],0.76
same,Ratio,[45],2.5
same,Ratio,[46],1.3
same,Drug uptake,Midbrain [47],3.04
same,Ratio,[48],2.6
same,Drug uptake,Caudate [49],2.85
same,Ratio,[50],3.3
same,Drug uptake,Pons [51],1.36
same,Drug uptake,Putamen [52],3.83
same,Drug uptake,Medulla [53],3.82
same,Ratio,[54],1.4
same,Drug uptake,Caudate [55],1.74
O=C(OCC[18F])C1C2CCC(CC1c1cccc(/C=C\I)c1)N2 (stereo not drawn),Ratio,[1],1.2
same,Drug uptake,Putamen [2],3.74
same,Drug uptake,Putamen [4],3.02
same,Drug uptake,Midbrain [5],3.85
same,Drug uptake,Pons [6],3.34
same,Drug uptake,[8],0
same,Drug uptake,Caudate [9],2.56
same,Drug uptake,[11],2.53
same,Drug uptake,Medulla [12],2.75
same,Ratio,[56],1.7
same,Drug uptake,[13],3.71
same,Drug uptake,Medulla [14],3.83
same,Drug uptake,[15],1.45
same,Drug uptake,Caudate [16],2.09
same,Drug uptake,Putamen [17],3.07
same,Drug uptake,Midbrain [18],0.54
same,Ratio,[19],1.2
same,Drug uptake,Caudate [20],3.67
same,Drug uptake,Medulla [21],3.37
same,Drug uptake,Thalamus [23],3.48
same,Drug uptake,Caudate [24],1.23
same,Drug uptake,Medulla [25],3.53
same,Drug uptake,[26],3.15
same,Ratio,[57],1.1
same,Drug uptake,Pons [27],2.46
same,Drug uptake,Thalamus [28],2.29
same,Drug uptake,Pons [29],2.76
same,Drug uptake,Pons [30],3.13
same,Drug uptake,Midbrain [31],3.46
same,Drug uptake,Putamen [32],0.96
same,Drug uptake,Medulla [34],2.37
same,Drug uptake,Thalamus [36],3.32
same,Drug uptake,Midbrain [37],4.91
same,Drug uptake,Caudate [38],2.02
same,Drug uptake,Thalamus [39],3.74
same,Drug uptake,Thalamus [40],4.16
same,Ratio,[58],1.1
same,Drug uptake,Midbrain [41],3.12
same,Drug uptake,Pons [42],0.09
same,Drug uptake,Thalamus [43],2.91
same,Drug uptake,Thalamus [44],0.96
same,Drug uptake,Midbrain [47],4.56
same,Ratio,[48],1.7
same,Ratio,[50],1.8
same,Drug uptake,Pons [51],2.02
same,Drug uptake,Putamen [52],2.35
same,Drug uptake,Medulla [53],3.78
same,Drug uptake,Caudate [55],2.94
